A short description of data set [1]: Excitation and emission spectra and time resolved fluorescence decays of Europium chelates. Format: physicochemical. As for the experimental part:
Below are some typical excitation and emission spectra, alone with time resolved fluorescence decays for Europium chelates of this invention. All spectra and decay measurements were recorded on an Amino Bowman Spectrophotometer (model AB2), with a time resolution of 50 us.
The characteristic narrow emission bands of europium is observed at around 614 nm. The excitation spectrum for the 614 nm emission band peaks at 355 nm, and at least 50% of this intensity is achieved with excitation wavelengths up to 375 nm.
As with the vast majority of fluorescence compounds, the sensitiser group itself has a very short fluorescence lifetime. […] However, as is clearly shown by the decay traces the fluorescence of the Eu^3+ incorporated in the chelate (at 614 nm) has a characteristically long lifetime that enables a time-resolved discrimination between the Eu-containing chelate and other fluorescent compounds. The Eu fluorescence lifetime was fitted with a single exponential fit giving a lifetime of 633 us.

The nature of data set [2]: Time resolved fluorescence signal of streptavidin conjugate (Wallac Victor). Conditions: 50 nM in 100 uL; 400 us delay, 400 us read, cycle time 1000 us. It is filed as physicochemical. The method, then: The reaction mixtures (549 ul) were then desalted into phosphate buffered saline containing 0.05% Tween 20 (PBS/Tween, Sigma) and 500 ul fractions were collected and assayed for protein content (Coomassie Blue Reagent, Biorad). The concentration of the pooled fractions (2 ml, 14 uM) was determined by Coomassie staining using streptavidin as a standard. […] 50 nM Cin-DTPA-SA gave 10,000 counts per second in 100 uL using these conditions. Improved labelling conditions yielding brighter conjugates, were obtained by freshly dissolving the Cin-DTPA-APA-chlorotriazine in 100% DMSO, increasing the pH of the reaction mixture to 9.0 in Bicarbonate buffer, and increasing the reaction time to approximately 16 hours at 4° C.

In another data set the test system is Cy5-labelled peptides. As to the kind of experiment: Time resolved fluorescence resonance energy transfer from Cin-DTPA-SA to Cy5-labelled peptide. As to conditions: 100 nM Cin-DTPA-SA; saturating concentrations of Cy5-peptide; λex=340 nm. The method, then:
Cin-DTPA-SA (100 nM) in PBS/Tween was mixed with increasing concentrations (0.1-1000 nM) of N-Succ-(Cy5-NH-K)AERAQAGVVNASSRLAE(K-NH-Biotin)-CO2H (where underlined letters refer to single amino acid codes) prepared by reaction of the corresponding unlabelled peptide with the N-hydroxysuccinimide esters of biotin and Cy5 (Amersham). After 30 minutes incubation at room temperature, the fluorescence intensity of the sample (λex=340 nm, λem=615 nm or 664 nm) was determined using a time gate of 400 us, 400 us read time, 1000 us cycle time for europium (615 nm) fluorescence and a time gate of 70 us, 200 us read time, 1000 us cycle time for Cy5 (664 nm) fluorescence. The 615 nm fluorescence decreased in a peptide concentration dependent manner by 62-67% at saturating concentrations of Cy5-peptide whilst the 664 nm fluorescence increased in a saturable manner from 1000 counts/second to 8,000 counts/second at saturating concentration of peptide. […] In addition, titration of 10 nM Cin-DTPA-SA with biotinylated allophycocyanin (Bt-APC, 0.5-500 nM, Sigma) in PBS/Tween was associated with an increase in the fluorescence signal at 664 nm from 1000 counts/second to 3,500 counts/second at 500 nM Bt-APC, again indicating energy transfer from the chelate to the acceptor.
The Eu^3+ fluorescence decreases and the Cy5 fluorescence increases as the Cy5-labelled peptide is titrated in. […]

For the compound `CCn1nc(C(=O)NCCNC(=O)CN(CCN(CCN(CC(=O)O)CC(=O)O)CC(=O)O)CC(=O)O)c(=O)c2cc3c(cc21)OCO3` [Cinoxacin-DTPA], in data set [1] (at 421 nm, time resolution 50 us), the “fluorescence lifetime of the chromophore” value is given as “too short to be reliably detected”. The Eu fluorescence lifetime in data set [1] (at 614 nm, single exponential fit) came to 633 us. Besides, in data set [1] (in the presence of Eu^3+), the “emission bands of europium” value is “around 614 nm” and the “excitation spectrum peak for the 614 nm emission band” value was 355 nm. The “excitation wavelengths at which at least 50% of peak intensity is achieved” value in data set [1] (in the presence of Eu^3+, 614 nm emission) was “up to 375 nm”.
Regarding “Cin-DTPA-SA: streptavidin labelled with Cinoxacin-DTPA-APA-chlorotriazene (D5) and loaded with Eu^3+”, the “time resolved fluorescence signal” value in data set [2] was 10,000 counts per second. Also, in the data set on Cy5-labelled peptides, the “decrease of 615 nm fluorescence” value is 62-67%.
For the compound Cinoxacin-DTPA-Cinoxacin, the “decay of the chromophore” value in data set [1] (at 430 nm, in the presence of Eu^3+) is on record as “too fast for detection”.

Values taken from patent US6441167B1, “Cinoxacin lanthanide chelates and their use as biomolecular probes” (SmithKline Beecham plc, priority 1998, dated 2002).
